The Ki is a measure of affinity in units of concentration, obtained from inhibition or displacement. Higher therefore signals a looser hold on the target. For orientation: ED50 means the midpoint of the dose-response relation.

The target of test [1] is Adrenergic receptor beta (Rattus norvegicus, UniProt P18090+P10608+P26255). In words: Compound was tested for the Binding affinity against rat cortical Beta adrenergic receptor by Radio ligand [3H]dihydroalprenolol binding assay. Format: protein assay.
Test [2] concerns the target T1, Adrenergic receptor alpha-1 (Rattus norvegicus, UniProt P15823+P23944+P43140).
T1 sequence (P15823 whole entry): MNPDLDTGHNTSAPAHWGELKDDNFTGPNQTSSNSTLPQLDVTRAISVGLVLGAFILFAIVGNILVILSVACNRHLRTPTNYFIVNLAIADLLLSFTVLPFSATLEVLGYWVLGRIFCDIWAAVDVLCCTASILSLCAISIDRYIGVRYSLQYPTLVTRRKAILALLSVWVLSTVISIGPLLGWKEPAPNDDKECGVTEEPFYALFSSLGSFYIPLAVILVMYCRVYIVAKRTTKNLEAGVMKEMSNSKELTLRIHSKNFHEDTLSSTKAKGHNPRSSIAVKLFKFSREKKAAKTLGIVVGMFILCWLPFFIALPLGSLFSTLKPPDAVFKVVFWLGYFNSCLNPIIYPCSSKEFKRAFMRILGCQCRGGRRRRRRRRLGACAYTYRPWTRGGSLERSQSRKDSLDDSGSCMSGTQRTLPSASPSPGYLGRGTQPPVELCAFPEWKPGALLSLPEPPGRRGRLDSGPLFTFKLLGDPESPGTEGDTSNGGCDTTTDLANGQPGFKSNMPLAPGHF
T1 sequence (P23944 whole entry): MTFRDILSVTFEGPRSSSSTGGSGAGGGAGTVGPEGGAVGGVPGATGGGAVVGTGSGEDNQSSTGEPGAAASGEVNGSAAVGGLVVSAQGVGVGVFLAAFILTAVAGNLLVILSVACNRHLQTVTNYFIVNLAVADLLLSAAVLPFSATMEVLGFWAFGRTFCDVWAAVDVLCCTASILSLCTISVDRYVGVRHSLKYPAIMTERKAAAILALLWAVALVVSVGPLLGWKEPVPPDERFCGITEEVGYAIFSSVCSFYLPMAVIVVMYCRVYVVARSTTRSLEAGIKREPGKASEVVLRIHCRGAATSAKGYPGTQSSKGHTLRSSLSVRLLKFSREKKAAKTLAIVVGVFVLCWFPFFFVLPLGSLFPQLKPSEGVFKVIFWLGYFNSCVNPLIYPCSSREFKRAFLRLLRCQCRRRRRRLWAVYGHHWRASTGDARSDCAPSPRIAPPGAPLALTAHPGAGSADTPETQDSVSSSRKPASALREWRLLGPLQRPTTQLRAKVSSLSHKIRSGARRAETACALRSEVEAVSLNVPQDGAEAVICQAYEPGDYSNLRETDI
T1 sequence (P43140 whole entry): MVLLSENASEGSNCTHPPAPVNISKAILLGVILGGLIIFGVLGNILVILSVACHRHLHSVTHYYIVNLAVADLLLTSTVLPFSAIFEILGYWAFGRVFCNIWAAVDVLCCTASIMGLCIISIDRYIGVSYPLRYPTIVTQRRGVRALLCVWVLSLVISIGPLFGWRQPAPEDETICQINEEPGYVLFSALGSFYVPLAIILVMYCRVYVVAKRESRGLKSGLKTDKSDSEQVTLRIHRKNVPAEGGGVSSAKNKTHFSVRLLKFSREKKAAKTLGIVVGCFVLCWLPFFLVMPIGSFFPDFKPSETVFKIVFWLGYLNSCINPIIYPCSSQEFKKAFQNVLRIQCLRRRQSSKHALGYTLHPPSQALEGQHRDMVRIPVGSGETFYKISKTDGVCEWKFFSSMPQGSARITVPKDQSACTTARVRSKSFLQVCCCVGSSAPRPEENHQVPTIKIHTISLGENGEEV
In words: Compound was tested for the binding affinity against rat cortical Alpha-1 adrenergic receptor by radioligand [3H]prazosin binding assay. Type of test: protein assay.

For test [3], the target named is T2, D(4) dopamine receptor (Homo sapiens, UniProt P21917).
T2 sequence (P21917 whole entry): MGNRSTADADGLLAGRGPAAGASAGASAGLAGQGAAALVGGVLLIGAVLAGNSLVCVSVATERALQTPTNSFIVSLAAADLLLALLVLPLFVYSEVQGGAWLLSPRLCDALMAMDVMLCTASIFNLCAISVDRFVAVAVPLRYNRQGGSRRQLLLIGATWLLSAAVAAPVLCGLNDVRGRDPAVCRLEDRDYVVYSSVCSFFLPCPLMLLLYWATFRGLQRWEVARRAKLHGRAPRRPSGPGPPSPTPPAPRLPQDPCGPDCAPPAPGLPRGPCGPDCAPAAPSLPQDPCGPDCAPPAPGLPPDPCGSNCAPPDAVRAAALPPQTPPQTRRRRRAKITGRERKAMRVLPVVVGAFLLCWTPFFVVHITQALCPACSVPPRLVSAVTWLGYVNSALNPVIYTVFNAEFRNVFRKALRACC
Kind of test: biochemical.

In test [4] the target is D(1B) dopamine receptor (Homo sapiens, UniProt P21918).
D(1B) dopamine receptor, sequence (P21918 whole entry): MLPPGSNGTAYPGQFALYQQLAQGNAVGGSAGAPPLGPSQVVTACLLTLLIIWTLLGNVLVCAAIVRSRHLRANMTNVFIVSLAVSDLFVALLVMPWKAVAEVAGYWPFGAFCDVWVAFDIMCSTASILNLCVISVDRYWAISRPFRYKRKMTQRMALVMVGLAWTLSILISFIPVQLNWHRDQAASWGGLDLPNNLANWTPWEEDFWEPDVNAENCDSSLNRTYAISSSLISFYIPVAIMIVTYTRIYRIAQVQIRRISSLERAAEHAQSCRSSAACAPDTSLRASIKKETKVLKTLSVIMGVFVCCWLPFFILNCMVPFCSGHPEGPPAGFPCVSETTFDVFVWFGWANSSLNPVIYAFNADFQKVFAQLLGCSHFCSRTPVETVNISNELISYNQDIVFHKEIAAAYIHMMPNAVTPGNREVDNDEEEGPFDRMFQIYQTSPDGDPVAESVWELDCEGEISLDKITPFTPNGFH
The target in test [5] is T3, 5-hydroxytryptamine receptor 3A (Mus musculus, UniProt P23979).
T3 sequence (P23979 whole entry): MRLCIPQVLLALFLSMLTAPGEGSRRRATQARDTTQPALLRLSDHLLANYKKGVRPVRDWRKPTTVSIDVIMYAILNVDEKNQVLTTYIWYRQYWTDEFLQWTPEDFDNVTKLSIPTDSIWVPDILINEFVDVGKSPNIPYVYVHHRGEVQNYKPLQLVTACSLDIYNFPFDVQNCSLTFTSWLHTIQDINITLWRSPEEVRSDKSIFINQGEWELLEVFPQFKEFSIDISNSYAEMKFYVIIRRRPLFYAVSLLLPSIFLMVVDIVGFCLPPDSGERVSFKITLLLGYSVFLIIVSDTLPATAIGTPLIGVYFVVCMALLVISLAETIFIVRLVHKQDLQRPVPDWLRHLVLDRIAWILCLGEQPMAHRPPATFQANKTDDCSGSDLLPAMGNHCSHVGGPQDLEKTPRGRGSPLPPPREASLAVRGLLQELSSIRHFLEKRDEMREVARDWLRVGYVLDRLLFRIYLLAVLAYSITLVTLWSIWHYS

The subject of test [6] is Mus musculus. In words: Compound was tested for inhibition of Apomorphine induced climbing in Mice on subcutaneous administration. Format: functional. The note with it: sc.
The target of test [7] is D(3) dopamine receptor (Rattus norvegicus, UniProt P19020). In words: biochemical.
D(3) dopamine receptor, sequence (P19020 whole entry): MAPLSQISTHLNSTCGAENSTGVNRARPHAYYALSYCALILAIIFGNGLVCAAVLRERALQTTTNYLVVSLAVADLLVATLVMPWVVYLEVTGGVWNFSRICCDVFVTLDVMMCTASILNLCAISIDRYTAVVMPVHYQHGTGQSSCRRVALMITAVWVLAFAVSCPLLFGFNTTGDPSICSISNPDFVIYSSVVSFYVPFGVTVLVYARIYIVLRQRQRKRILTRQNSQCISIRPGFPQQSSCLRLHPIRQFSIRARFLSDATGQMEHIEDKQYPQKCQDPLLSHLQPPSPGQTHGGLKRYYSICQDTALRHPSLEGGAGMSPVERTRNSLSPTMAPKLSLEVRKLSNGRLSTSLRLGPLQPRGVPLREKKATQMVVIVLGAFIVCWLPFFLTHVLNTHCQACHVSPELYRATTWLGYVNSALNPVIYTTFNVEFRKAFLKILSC
Description: Binding affinity to rat Dopamine receptor D3 expressed in CHO cells was determined using [125 I] iodosulpride as radioligand
Test [8] addresses 5-hydroxytryptamine receptor 2A (Rattus norvegicus, UniProt P14842). In words: biochemical.

5-hydroxytryptamine receptor 2A, sequence (P14842 whole entry): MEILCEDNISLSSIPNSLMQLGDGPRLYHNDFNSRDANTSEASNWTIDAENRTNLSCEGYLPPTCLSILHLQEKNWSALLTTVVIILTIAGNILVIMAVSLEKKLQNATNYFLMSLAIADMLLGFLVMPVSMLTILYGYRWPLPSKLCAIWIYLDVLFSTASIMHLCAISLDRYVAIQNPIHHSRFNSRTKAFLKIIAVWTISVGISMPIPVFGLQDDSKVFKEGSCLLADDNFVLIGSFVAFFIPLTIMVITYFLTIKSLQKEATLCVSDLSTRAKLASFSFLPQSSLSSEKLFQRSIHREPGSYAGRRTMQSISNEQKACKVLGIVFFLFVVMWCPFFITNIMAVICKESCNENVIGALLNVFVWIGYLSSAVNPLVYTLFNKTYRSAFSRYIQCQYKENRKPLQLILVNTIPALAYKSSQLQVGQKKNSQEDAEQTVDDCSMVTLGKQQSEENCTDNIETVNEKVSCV

`COc1cc(NC(=O)C2CC2)c(Cl)cc1C(=O)N[C@H]1CCN(Cc2ccccc2)C1`: the inhibition constant Ki is greater than 10 µM in test [1]; 5.3 µM in test [2]; 0.0021 µM in test [3]; greater than 10 µM in test [4]; 4 µM in test [5]; 0.021 µM in test [7]. The compound further showed a Ki in test [8] greater than 10 µM. Also, the ED50 in test [6] was determined as 0.32 mg/kg.

The record behind these values is ChEMBL document CHEMBL1129789, “Dopamine D3 and D4 receptor antagonists: synthesis and structure--activity relationships of (S)-(+)-N-(1-Benzyl-3-pyrrolidinyl)-5-chloro-4- [(cyclopropylcarbonyl) amino]-2-methoxybenzamide (YM-43611) and related compounds” (J Med Chem, 1996).
